Experimental findings from patent US20230233584A1, “EXTENDED RELEASE 5-HT RECEPTOR AGONISTS FOR NEUROLOGICAL CONDITIONS” (Diamond Therapeutics Inc., priority 2020, published 2023) are described below.

Assay type in all cases: in vivo
Series [1] relates to Long Evans rats. In words: Progressive ratio (PR) test, Study B. The method, then: (§1) General: Experiments were conducted to test psilocybin doses in the range of 0.01-0.2 mg/kg psilocybin administered S.C. across progressive ratio (PR) and 5-choice serial reaction time task (5CSRTT) to examine the effect of psilocybin on endophenotypes of motivation and attention. In each study, a population of out-bred Long Evans rats was first tested as a group for response to the PR and 5CSRTT. Each group was then divided into subgroups by tertiles according to performance, and then exposed to various dose levels immediately prior to re-testing at various psilocybin dose levels.
The PR test is used to answer how willing the test subject is to work for food (i.e. test of motivation). A single 45 mg food pellet (i.e. reinforcer) is made available to the test animal based on lever press response. To obtain each successive pellet, the animal must make increasingly more lever presses. Typically, a progression of 2, 4, 6, 9, 12, 15, 20, 25, 32, 40, 50, 62, 77, 95, 118, etc. is used, derived from the equation:
ratio=[5×e^(0.2×reinforcer #)−5]
At some point, the animal gives up as the motor demands to obtain a single pellet are not deemed worthwhile (i.e. animal reaches “break point” defined as animal's failure to earn a food pellet in 20 minutes).
Study B: Based on Study 1 outcome, a follow-up PR study was conducted utilizing a larger cohort size (72 rats total), and incorporating a lower dose of psilocybin (0.025 mg/kg SC) (FIG. 2C and FIG. 2D). […] Separation of rats based on the lowest average break point recorded over the 7 days prior to testing identified a “low responder” subgroup of N=24 rats. […] There was no treatment effect on session duration (F3,69=2.4; P=0.07, NS), although there was trend for this to be increased at the 0.1 mg/kg dose (Veh: 15.1+2.0 min; Psilo 0.1 mg/kg: 18.7+2.5 min).

The test system of series [2] is Long Evans rats. The series can be described thus: 5-choice serial reaction time task (5CSRTT), acute dosing, standard conditions. As to conditions: for pro-cognitive effect measured as % hit: p=0.05. As to the method: as §1
The 5CSRTT involves evaluating test subject response to a brief visual stimulus (Higgins, Guy & Silenieks, Leonardo. (2017). Rodent Test of Attention and Impulsivity: The 5-Choice Serial Reaction Time Task: The 5-Choice Serial Reaction Time Task. 10.1002/cpph.27). Animals are trained to make a nose-poke response to a stimulus location in order to collect a food reward. The task allows the experimenter to measure animal performance in multiple domains including: • Attention • Impulsivity • Perseveration • Speed of response
A strength of the test is its flexible configuration to challenge test subjects: • Standard test conditions (0.75 s stimulus duration (SD), 5 s inter-trial interval (ITI), 100 trials) • Multiple short stimulus duration (mSD) (0.03-1 s SD) • Fixed long ITI (5 s vs. 10 s ITI) • Multiple ultrashort ITI (2-5 s ITI) • Extended 250 trials
Asterisk (*) indicates statistical significance vs. vehicle. (FIG. 3A).
When this population is segmented into tertiles according to performance based on accuracy (% correct, calculated as # correct/(# correct+# incorrect)*100), the lowest performing tertile (N=8) are considered to be low attentive and potentially representative of a low attentive endophenotype of depression (FIG. 6A). Low attentive rats also score poorly on % hit (FIG. 6B) and have a slower response speed (FIG. 6D). […] Asterisk (*) indicates statistical significance vs. vehicle.

Series [3] relates to Long Evans rats. In words: 5-CSRTT during 12-day minipump (extended release) dosing of poor performing rats. Conditions: for increase in premature behaviors: minipump (ER dosing). The method, then:
The 5-choice serial reaction time task (5-CSRTT) was used to measure attentional performance in rodents. The test design involves training animals to respond to a brief visual stimulus presented unpredictably in one of five locations. Once trained to stable performance levels, the effects of experimental manipulations on response speed and choice accuracy were measured and each are related to attentional performance. The test was used to examine aspects of response control with responding prior to stimulus onset, i.e., a premature response, becoming a measure of motor impulsivity. The test is adaptable to task modification. Variations to stimulus duration (SD, 0.03-1 s duration) and frequency of stimulus presentation (2-10 s), amongst others have become commonly used to tax performance.
72 male Long Evans rats (source: Charles River, St. Constant, QE) were trained to asymptotic performance in the 5-CSRTT over a period of approximately 2 months. The rats were trained to final stimulus duration (SD) of 0.75 s, 5 s inter-trial interval (ITI), 5 s limited hold (LH), 100 trials per session. The rats were singly housed and food restricted to ˜20 g food/day throughout the study.
While the target performance levels under these conditions was in the range of >80% accuracy, <20% omissions, individual rats show different performance levels based on attentional accuracy or measures of impulsive action. The selection phase involves selecting the “worst” 40 rats based on both attentional performance (lowest performance based on accuracy measures of % correct/% hit) and/or impulsive action ([…] levels of premature responses noted at an extended 10 s ITI schedule and also baseline testing).
During the training period, 72 rats were trained on the 5-CSRTT, and the 40 worst performers. The 40 animals with the “worst” attentional performance (lowest performance based on accuracy measures of % correct, omissions and response speed) and impulsive action (PREM responses) were selected for the experiment. These 40 poor performing rats were allocated into one of two cohorts, with N=16 rats implanted with a vehicle (saline, Group A) minipumps and N=24 implanted with minipumps primed with psilocybin.
For 12 days following pump implantation surgery, rats were assessed for performance in the 5-CSRTT under (A) standard 5-CSRTT protocol (5 s ITI, 0.75 s SD, 100 trials) on days 1-4, 6-8, 10-11 (i.e. 9 days total run under this condition), and (B) the more difficult conditions of 10 s ITI, 0.3 s SD, 100 trials. The standard conditions were tested on days 1-4, 6-8, 10-11, and the more difficult conditions were tested on post-implant days 5, 9 and 12 (i.e. 3 days total run under this condition).
The result was significant on D2 (P<0.05). In FIG. 8A, B/L refers to ‘baseline’ conditions of 5 s ITI, 0.75 SD (calculated by taking the mean of the days immediately prior to and immediately following the test day). For example, B/L1 is the mean of performance on the days before and after D1 (since D1 is test day 5, B/L is mean of days 4 and 6).

Where [4] appears, read: 0.025-0.1 mg/kg SC, all 72 rats.
Where [5] appears, read: 0.05 mg/kg S.C., 24 rats, standard conditions.
The mark [6] stands for this setting: 0.05-0.1 mg/kg S.C., standard conditions.

“Also recorded” adds a separate entry of the source.

Take `CN(C)CCc1c[nH]c2cccc(OP(=O)(O)O)c12` [psilocybin, 4-phosphoryloxy-N,N-dimethyltryptamine]: the session duration with Long Evans rats [1] (0.1 mg/kg, low responder cohort) is recorded as 18.7+2.5 min. In the series with Long Evans rats [1] (setting [4]), the break point entry is “no treatment group was significantly different to vehicle” and the “number of lever presses, session duration” value is reported as “no main effect of treatment”. For the same compound, in the series on Long Evans rats [1] (0.05-0.1 mg/kg pretreatment, low responder cohort N=24, relative to vehicle), the “lever press and break point” value is recorded as “increases in both measures”. Further, in the series with Long Evans rats [2] (setting [5]), the “procognitive effect measured as % correct” value is “slight non-significant increase” and the “pro-cognitive effect measured as % hit” value is “increased”. Further, in the series on Long Evans rats [2] (0.05 mg/kg and 0.1 mg/kg S.C., low performers), the “pro-cognitive effect measured as % hit” value is “increased”. Moreover, the response speed result in the series with Long Evans rats [2] (0.05 mg/kg, low attentive cohort compared with vehicle) was “increased response speed”. For the same compound, in the series on Long Evans rats [2] (setting [6]), the “performance: response speed, number of trials completed” value is recorded as “no effect on response speed, or number of trials completed” and the “premature or perseverative responses” value is “no effect on premature or perseverative responses”. Moreover, in the series with Long Evans rats [2] (0.05 and 0.1 mg/kg S.C., low performers), the “pro-cognitive effect measured as % correct” value is given as “slight non-significant increase”. For the same compound, in the series with Long Evans rats [2] (0.05 and 0.1 mg/kg, low attentive subgroup (N=8) compared with vehicle), the “effect on accuracy (% correct and % hit)” value was “strongly evident”. Besides, in the series with Long Evans rats [2] (low doses used in PR and 5CSRTT studies (0.025-0.2 mg/kg S.C.)), the “detrimental effects on performance (motivation, motor control, attention, response speed)” value is “no detrimental effects”. Moreover, the “mean performance on Days 1-3” value with Long Evans rats [3] (10 s ITI challenge days, vs. vehicle, p=0.03) was “significantly improved”. Further, in the series with Long Evans rats [3] (10 s ITI, Challenge Day 2 (D2, test day 9), vs vehicle), the “% correct / performance” value was “significant improvement; also recorded: significant (P=0.01) increase”. For the same compound, in the series on Long Evans rats [3] (challenging conditions 10 s ITI, 0.3 s SD, test days 5, 9 and 12, vs vehicle), the “% correct responses” value is recorded as “performed better than vehicle treated animals”. Also, the “increase in premature behaviors” value in the series on Long Evans rats [3] (more taxing/challenge conditions 10 s ITI, 0.3 s SD) was “do not have an increase in premature behaviors”. In addition, the “increase in premature behaviors” value with Long Evans rats [3] (standard conditions) was “do not have an increase in premature behaviors”. The correct attempts entry in the series with Long Evans rats [3] (minipump, standard test conditions, over a period of time) is on record as “does not increase the number of correct attempts; also recorded: did not show that psilocybin caused an increase in correct attempts”.
